Among the data in US20070244155A1 (AMGEN INC., priority 2006, published 2007) are EC50 values, retold here.

For this experiment, the target named is T1, human GPR40 (Homo sapiens, UniProt O14842).
T1 construct: expressed in transfected cells; host or cells: CHO cells
T1 sequence (O14842 whole entry): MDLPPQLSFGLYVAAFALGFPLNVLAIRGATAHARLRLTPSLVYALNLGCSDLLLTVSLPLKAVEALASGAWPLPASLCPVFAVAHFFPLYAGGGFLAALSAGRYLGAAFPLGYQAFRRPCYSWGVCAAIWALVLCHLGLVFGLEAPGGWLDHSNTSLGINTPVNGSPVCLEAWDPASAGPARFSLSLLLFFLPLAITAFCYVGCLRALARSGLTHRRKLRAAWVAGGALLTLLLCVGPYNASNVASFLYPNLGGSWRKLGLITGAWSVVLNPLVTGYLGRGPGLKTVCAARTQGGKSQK
Put plainly: Cell-based aequorin assay using human GPR40. The following applies: CHO cells transfected with GPR40 and aequorin expression vectors; aequorin luminescence; activation of human GPR40; read-out: Relative EC50. On the procedure:
A cell-based aequorin assay may be employed to characterize the modulatory activity of compounds on the GPR40 signaling pathway. In an exemplary assay, CHO cells are transfected in a 15 cm plated containing 14 million cells with 5 μg of GPR40 expression vector and 5 μg of Aequorin expression vector (Euroscreen) using Lipofectamine 2000 (Invitrogen). After 17-24 hours post-transfection, cells are washed with phosphate buffered saline (PBS) and detached from the tissue culture dish with 2 mL of trypsin (0.25%(w/v)). Trypsinization is halted with 28 mL of Hanks Buffered Salt Solution containing 20 mM Hepes (H/HBSS) and 0.01% fatty acid-free bovine serum albumin (BSA) or 0.625% fatty acid-free human serum albumin (HSA). Coelantrazine is added to 1 ug/mL and the cells are incubated for 2 hours at room temperature. Cells are gently mixed every 15 minutes. Compounds are dissolved in dimethyl sulfoxide for preparation of 10 mM stock solutions. Compounds are diluted in H/HBSS containing either 0.01% BSA or 0.625% HSA. Serial dilutions of the test compounds are prepared to determine dose response. Aequorin luminescence measurements are made using an EG&G Berthold 96-well luminometer and the response is measured over a 20 second interval after cells and compounds are mixed. The area-under-curve from 2-20 seconds is plotted to determine dose response. The EC50 (effective concentration to reach 50% maximal response) is determined from the dose response plot. Table 1 includes representative data (EC50 values) obtained for exemplary compounds of the invention for the relative activation of human GPR40. […] Therefore, in some embodiments, the invention provides any of the compounds listed in Table 1 individually or as members of a group and pharmaceutically acceptable salts, esters, solvates, tautomers, stereoisomers, and/or prodrugs thereof.
Regarding `Cc1cc(Cl)ccc1-c1cccc(COc2ccc3c(c2)CCC[C@@H]3CC(=O)O)c1` [Example 55], the EC50 (usually the concentration giving half of the maximal effect) lay in the range of 100 to 1000 nM.

For the compound `Cc1ccccc1/C=C/c1ccc2c(c1)CCCC2CC(=O)O` (centres unmarked) [Example 46, [6-((E)-2-o-Tolyl-vinyl)-1,2,3,4-tetrahydro-naphthalen-1-yl]-acetic acid], the concentration giving a half-maximal response (EC50) is 1000 to 10000 nM. In the case of `Cc1ccc(-c2nc(C)c(COc3ccc4c(c3)CCCC4CC(=O)O)s2)cc1` (centres unmarked) [Example 10] it was 100 to 1000 nM; in that of `CCCCOc1ccc(C)cc1-c1ccc(COc2ccc3c(c2)C(CC(=O)O)CCC3)cc1` (centres unmarked) [Example 18], 1000 to 10000 nM.

`COc1ccc(/C=C/c2ccc3c(c2)CCCC3CC(=O)O)cc1` (centres unmarked) [Example 47, {6-[(E)-2-(4-Methoxy-phenyl)-vinyl]-1,2,3,4-tetrahydro-naphthalen-1-yl}-acetic acid]: the EC50 fell in the range of 1000 to 10000 nM. As to `O=C(O)C(F)(F)C1CCCc2cc(OCc3cccc(-c4ccc(C(F)(F)F)cc4)c3)ccc21` (centres unmarked) [Example 32, Difluoro-[6-(4′-trifluoromethyl-biphenyl-3-ylmethoxy)-1,2,3,4-tetrahydro-naphthalen-1-yl]-acetic acid], the EC50 was in the range of 1000 to 10000 nM. With `O=C(O)C1CCc2cc(OCCOc3cccc(C(F)(F)F)c3)ccc2C1` (centres unmarked) [Example 30], the EC50 was in the range of 1000 to 10000 nM. `Cc1cc(Cl)ccc1-c1cccc(COc2ccc3c(c2)C(=O)N(C)C3CC(=O)O)c1` (racemic) [Example 67, (R/S)-(5-(((4′-chloro-2′-methyl-1,1′-biphenyl-3-yl)methyl)oxy)-2-methyl-3-oxo-2,3-dihydro-1H-isoindol-1-yl)acetic acid]: the EC50 lay within 100 to 1000 nM. Take `Cc1ccc(-c2nc(C)c(COc3ccc4c(c3)CC(C)C4CC(=O)O)s2)cc1` (mixture of isomers) [Example 28]: the EC50 lay in the range of 1000 to 10000 nM. Take `CCOc1ccc(F)c(-c2ccc(COc3ccc4c(c3)CCC(C(=O)O)C4)cc2)c1` (racemic) [Example 72, (R/S)-6-(((5′-(ethoxy)-2′-fluoro-1,1′-biphenyl-4-yl)methyl)oxy)-1,2,3,4-tetrahydro-2-naphthalenecarboxylic acid]: the concentration for a half-maximal effect (EC50) was in the range of 1000 to 10000 nM.

Turning to `Cc1nc(-c2ccc(C(F)(F)F)cc2)sc1COc1ccc2c(c1)CCC[C@@H]2CC(=O)O` [Example 56], the EC50 lay in the range of 100 to 1000 nM. In the case of `Cc1ccc(-c2nc(C)c(COc3ccc4c(c3)CCCC4C(F)(F)C(=O)O)s2)cc1` (centres unmarked) [Example 33] it was 1000 to 10000 nM; in that of `C=C1COc2cc(OCc3ccc(-c4cc(C)ccc4OCCCC)cc3)ccc2[C@@H]1CC(=O)O` [Example 37, [(R)-7-(2′-Butoxy-5′-methyl-biphenyl-4-ylmethoxy)-3-methylene-chroman-4-yl]-acetic acid], 100 to 1000 nM; in that of `O=C(O)CC1CCc2cc(OCc3cccc(-c4ccc(C(F)(F)F)cc4)c3)ccc21` (centres unmarked) [Example 15], 1000 to 10000 nM. In the case of `CCCCOc1ccc(C)cc1-c1ccc(COc2ccc3c(c2)OCC(C)C3CC(=O)O)cc1` (racemic) [Example 40], the EC50 lay in the range of 100 to 1000 nM. Regarding `Cc1ccc(-c2nc(C)c(COc3ccc4c(c3)CCC[C@H]4CC(=O)O)s2)cc1` [Example 5], the concentration for a half-maximal effect (EC50) was below 100 nM. In the case of `COc1cccc(-c2ccc(COc3ccc4c(c3)CCC[C@H]4CC(=O)O)cc2)c1` [Example 57, (S)-[6-(3′-Methoxy-biphenyl-4-ylmethoxy)-1,2,3,4-tetrahydro-naphthalen-1-yl]-acetic acid] it was 1000 to 10000 nM.

Consider `Cc1ccc(-c2nc(C)c(COc3ccc4c(c3)OCC[C@@H](C(=O)O)C4)s2)cc1` [Example 61, 8-((4-Methyl-2-p-tolylthiazol-5-yl)methoxy)-2,3,4,5-tetrahydrobenzo[b]oxepine-4-carboxylic acid], for which the EC50 was 100 to 1000 nM. As to `O=C(O)CC1c2ccc(OCc3cccc(-c4ccc(C(F)(F)F)cc4)c3)cc2OCc2conc21` (racemic) [Example 71, (R/S)-(7-(((4′-(trifluoromethyl)-1,1′-biphenyl-3-yl)methyl)oxy)-4H,10H-[l]benzoxepino[4,3-c]isoxazol-10-yl)acetic acid], the EC50 was in the range of 1000 to 10000 nM. In the case of `C/C=C1/COc2cc(OCc3ccc(-c4cc(C)ccc4OCCCC)cc3)ccc2C1CC(=O)O` (centres unmarked) [Example 41] it was 100 to 1000 nM. With `O=C(O)CC1CCCc2cc(CCc3ccc(C(F)(F)F)cc3)ccc21` (centres unmarked) [Example 48, {6-[2-(4-Trifluoromethyl-phenyl)-ethyl]-1,2,3,4-terahydro-naphthalen-1-yl}-acetic acid], the EC50 fell in the range of 1000 to 10000 nM. In the case of `Cc1c(Cl)cccc1-c1cccc(COc2ccc3c(c2)OCC[C@@H](C(=O)O)C3)c1` [Example 64] it was 100 to 1000 nM.

In the case of `Cc1ccc(-c2nc(C)c(COc3ccc4c(c3)CCC4CC(=O)O)s2)cc1` (centres unmarked) [Example 14], the EC50 lay within 100 to 1000 nM. As for `C=C1COc2cc(OCc3ccc(-c4cc(C)ccc4OCCCC)cc3)ccc2[C@H]1CC(=O)O` [Example 36, [(S)-7-(2′-Butoxy-5′-methyl-biphenyl-4-ylmethoxy)-3-methylene-chroman-4-yl]-acetic acid], the EC50 was below 100 nM.

In the case of `COc1cccc(-c2ccc(COc3ccc4c(c3)CCC4CC(=O)O)cc2)c1` (centres unmarked) [Example 13], the EC50 lay within 100 to 1000 nM. For the compound `CCCCOc1ccc(C)cc1-c1ccc(COc2ccc3c(c2)CCC(C)C3CC(=O)O)cc1` (mixture of isomers) [Example 23], the EC50 lay within 1000 to 10000 nM. For the compound `O=C(O)CC1CCCc2cc(OCc3cccc(-c4ccc(C(F)(F)F)cc4)c3)ccc21` (centres unmarked) [Example 8], the half-maximal effective concentration (EC50) is 100 to 1000 nM. For the compound `O=C(O)C[C@H]1CCCc2cc(OCc3cccc(-c4ccc(C(F)(F)F)cc4)c3)ccc21` [Example 6], the EC50 lay within 1000 to 10000 nM. For `C=C1COc2cc(OCc3sc(-c4ccc(C)cc4)nc3C)ccc2C1CC(=O)O` (centres unmarked) [Example 34, 2-(7-((4-methyl-2-p-tolylthiazol-5-yl)methoxy)-3-methylene-3,4-dihydro-2H-chromen-4-yl)acetic acid], the EC50 was below 100 nM.

Take `C=C1COc2cc(OCc3ccc(-c4cc(C)ccc4OCCCC)cc3)ccc2C1CC(=O)O` (racemic) [Example 35]: the EC50 fell in the range of 100 to 1000 nM. Turning to `Cc1ccc(-c2nc(C)c(COc3ccc4c(c3)CCC(C)C4CC(=O)O)s2)cc1` (mixture of isomers) [Example 24], the EC50 fell in the range of 1000 to 10000 nM. For `C=C(c1ccc(-c2ccccc2)cc1)c1ccc2c(c1)CCCC2CC(=O)O` (racemic) [Example 44, (R/S)-[6-(1-Biphenyl-4-yl-vinyl)-1,2,3,4-tetrahydro-naphthalen-1-yl]-acetic acid] the value was 1000 to 10000 nM; for `CCOc1ccccc1-c1ccc(COc2ccc3c(c2)C(CC(=O)O)CCC3)cc1` (centres unmarked) [Example 19], 1000 to 10000 nM; for `O=C(O)CCn1ccc2cc(OCc3ccccc3)ccc21` [Example 53], 1000 to 10000 nM. In the case of `Cc1c(Cl)cccc1-c1cccc(COc2ccc3c(c2)C(=O)NC3CC(=O)O)c1` (racemic) [Example 68], the EC50 was in the range of 1000 to 10000 nM. For `CC1Cc2cc(OCc3cccc(-c4ccc(C(F)(F)F)cc4)c3)ccc2C1CC(=O)O` (mixture of isomers) [Example 26] the value was 1000 to 10000 nM; for `Cc1c(Cl)cccc1-c1cccc(COc2ccc3c(c2)C(=O)N(C)C3CC(=O)O)c1` (racemic) [Example 69, (R/S)-(5-(((3′-chloro-2′-methyl-1,1′-biphenyl-3-yl)methyl)oxy)-2-methyl-3-oxo-2,3-dihydro-1H-isoindol-1-yl)acetic acid], 100 to 1000 nM; for `COc1ccc(COc2ccc3c(c2)CCCC3CC(=O)O)cc1` (centres unmarked) [Example 9], 1000 to 10000 nM.

As for `CC1CCc2cc(OCc3cccc(-c4ccc(C(F)(F)F)cc4)c3)ccc2C1CC(=O)O` (mixture of isomers) [Example 22], the EC50 lay in the range of 1000 to 10000 nM. On to `CCCCOc1ccc(C)cc1-c1ccc(COc2ccc3c(c2)CCC(C(=O)O)C3)cc1` (racemic) [Example 29, (R/S)-6-(2′-Butoxy-5′-methyl-biphenyl-4-ylmethoxy)-1,2,3,4-tetrahydro-naphthalene-2-carboxylic acid], for which the EC50 is 100 to 1000 nM. `COc1cccc(-c2ccc(COc3ccc4c(c3)CCC[C@@H]4CC(=O)O)cc2)c1` [Example 58, (R)-[6-(3′-Methoxy-biphenyl-4-ylmethoxy)-1,2,3,4-tetrahydro-naphthalen-1-yl]-acetic acid]: the EC50 lay in the range of 1000 to 10000 nM.

For `CCOc1ccccc1-c1ccc(COc2ccc3c(c2)CCCC3CC(=O)O)cc1` (centres unmarked) [Example 2, [6-(2′-Ethoxy-biphenyl-4-ylmethoxy)-1,2,3,4-tetrahydro-naphthalen-1-yl]-acetic acid], the EC50 fell in the range of 100 to 1000 nM. For `CCCCOc1ccc(C)cc1-c1ccc(COc2ccc3c(c2)OCC(=C(C)C)C3CC(=O)O)cc1` (racemic) [Example 39] the value was 100 to 1000 nM. As for `O=C(O)CC1COCc2cc(OCc3cccc(-c4ccc(C(F)(F)F)cc4)c3)ccc21` (centres unmarked) [Example 42, 2-(7-(3-(4-Trifluoromethylphenyl)benzyloxy)-3,4-dihydro-1H-isochromen-4-yl)acetic acid], the EC50 lay within 100 to 1000 nM.
